Where two headings read alike, the source gives them in different places.
Columns and labels:
[1] = target: T1, HMG CoA reductase (Homo sapiens, UniProt P04035); assay: Ubiquitination of reductase in a permeabilized cell system; format: cell-based; details: permeabilized cells; data not shown
T1 sequence (P04035 1-888): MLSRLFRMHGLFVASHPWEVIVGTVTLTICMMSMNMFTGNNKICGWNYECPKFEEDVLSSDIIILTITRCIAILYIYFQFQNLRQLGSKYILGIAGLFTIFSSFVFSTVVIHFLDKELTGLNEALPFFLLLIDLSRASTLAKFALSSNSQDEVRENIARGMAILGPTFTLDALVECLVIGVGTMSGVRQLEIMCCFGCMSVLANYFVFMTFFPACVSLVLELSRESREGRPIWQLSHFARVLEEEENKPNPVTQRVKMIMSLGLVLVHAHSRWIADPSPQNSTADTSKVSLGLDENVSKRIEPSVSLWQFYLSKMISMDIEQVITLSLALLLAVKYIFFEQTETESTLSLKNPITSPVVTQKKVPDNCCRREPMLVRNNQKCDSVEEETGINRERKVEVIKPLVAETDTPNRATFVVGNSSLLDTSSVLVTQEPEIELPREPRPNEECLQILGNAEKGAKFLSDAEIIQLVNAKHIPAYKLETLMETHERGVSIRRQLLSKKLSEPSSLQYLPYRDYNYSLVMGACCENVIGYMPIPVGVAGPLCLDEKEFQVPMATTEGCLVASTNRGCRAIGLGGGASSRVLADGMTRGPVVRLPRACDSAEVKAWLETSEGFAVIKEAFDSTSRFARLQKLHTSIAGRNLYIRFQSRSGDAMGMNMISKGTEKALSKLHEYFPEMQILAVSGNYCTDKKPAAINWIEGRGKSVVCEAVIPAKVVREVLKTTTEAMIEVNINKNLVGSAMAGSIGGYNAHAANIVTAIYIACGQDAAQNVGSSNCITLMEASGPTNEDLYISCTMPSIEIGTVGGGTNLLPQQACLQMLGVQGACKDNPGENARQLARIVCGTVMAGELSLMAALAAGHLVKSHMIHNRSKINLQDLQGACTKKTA
Description: It was determined whether intermediates in cholesterol synthesis promote ubiquitination of reductase in a permeabilized cell system. […] The methyl and side chain hydroxyl groups of 27-hydroxylanosterol appear to act synergistically in promoting reductase ubiquitination.

[2] = target: T2, LXRα (Homo sapiens, UniProt Q13133); details: cited from earlier work
T2 sequence (Q13133 1-447): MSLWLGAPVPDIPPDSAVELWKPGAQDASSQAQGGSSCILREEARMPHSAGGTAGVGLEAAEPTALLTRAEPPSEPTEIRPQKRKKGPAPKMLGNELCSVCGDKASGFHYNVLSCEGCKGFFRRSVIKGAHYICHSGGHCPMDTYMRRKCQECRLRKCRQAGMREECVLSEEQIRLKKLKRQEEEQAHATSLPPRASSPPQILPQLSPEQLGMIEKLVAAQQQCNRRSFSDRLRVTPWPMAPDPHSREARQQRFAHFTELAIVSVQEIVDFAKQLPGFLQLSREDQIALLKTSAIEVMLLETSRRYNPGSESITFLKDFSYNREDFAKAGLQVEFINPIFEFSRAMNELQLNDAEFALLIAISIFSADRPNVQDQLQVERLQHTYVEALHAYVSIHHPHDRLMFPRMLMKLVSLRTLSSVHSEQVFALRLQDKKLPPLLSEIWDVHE

[3] = target: T3, LXRβ (Homo sapiens, UniProt P55055); details: cited from earlier work
T3 sequence (P55055 1-460): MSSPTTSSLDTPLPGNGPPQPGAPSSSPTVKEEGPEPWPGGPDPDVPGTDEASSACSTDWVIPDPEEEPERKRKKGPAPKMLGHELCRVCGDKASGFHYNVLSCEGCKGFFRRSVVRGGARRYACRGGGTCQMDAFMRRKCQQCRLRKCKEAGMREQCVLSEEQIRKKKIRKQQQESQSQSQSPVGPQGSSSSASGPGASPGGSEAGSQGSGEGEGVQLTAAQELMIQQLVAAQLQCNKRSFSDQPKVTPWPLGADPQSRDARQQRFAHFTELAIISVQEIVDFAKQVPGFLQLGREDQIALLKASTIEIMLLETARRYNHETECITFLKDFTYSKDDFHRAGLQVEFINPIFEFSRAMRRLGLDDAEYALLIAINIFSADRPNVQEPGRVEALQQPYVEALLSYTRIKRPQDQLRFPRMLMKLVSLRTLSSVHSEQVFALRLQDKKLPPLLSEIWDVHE

[4] = target: T4, Recombinant human P450 27A1 (Homo sapiens, UniProt Q02318); assay: P450 27A1 enzyme incubation: rate of 27-diol formation (GLC-MS); format: biochemical; details: for Substrate for the enzyme CYP 27A1: human enzyme expressed in E. Coli; for Synthesis rate of the 27-diol metabolite: 25 nmol substrate, 37° C.; for Total 27-diol metabolite: total over 10 min
T4 construct: made in house; host or cells: E. coli
Description: (§1) Recombinant human P450 27A1, recombinant bovine adrenodoxin (Adx), and recombinant bovine adrenodoxin reductase (Adr) were expressed and purified as described previously (7). P450 27A1 with a heme content of 17.6 nmol/mg protein and showing a single band upon silver-stained SDS-polyacrylamide gel electrophoresis, and Adr and Adx with the spectral purity indexes of 7.5 (A278/A450) and 0.95 (A414/A276), respectively, were used for enzymatic assays. Adr and Adx are considered to be pure with the spectral purity indexes beginning from 7.5 for Adr and 0.86 for Adx (8).
(§2) P450 27A1 activities using cholesterol, desmosterol, zymosterol, lanosterol, or […] as the substrate were assayed in 40 mM phosphate buffer, pH 7.4. Stock solutions (10 mM) of cholesterol, desmosterol, zymosterol, and […] were prepared using 45% aqueous solution of 2-hydroxypropyl-β-cyclodextrin. Reaction mixtures (1 ml) contained 0.065 nmol of P450 27A1, 0.33 nmol of Adr, 1.3 nmol of Adx, and 25 nmol of substrate, Lanosterol was dissolved in methyl-β-cyclodextrin (Sigma, St. Louis, Mo.) and the reaction mixture contained 25 nmol substrate, 0.3 nmol enzyme, 1.5 nmol Adr and 6.5 nmol Adx. Enzymatic assays, initiated by addition of 1 μmol of NADPH, were carried out at 37° C. for different time intervals, and were terminated by adding 1 ml of either CH2Cl2 or CH2Cl2 that contained coprostanol. After extraction, the steroid were taken to dryness. In some studies deuterated 27-hydroxycholesterol (9) was used as an internal standard.
(§3) For zymosterol and desmosterol, the rate of diol formation was determined at 2.5, 5.0, and 10 min by removing aliquots and adding deuterated 27-hydroxycholesterol as an internal standard. The m/z 454 area was then compared with the m/z=462 area at each time interval. Because authentic standards are not available for constructing standard curves, it was assumed that the area/mass ratios for deuterated 27-hydroxycholesterol, zymosterol and desmosterol were equal. A second approach was to quantify the rate of disappearance of substrate using coprostanol added at the end of the incubation period. In all studies a parallel incubation with the omission of adrenodoxin reductase served as a control.
(§4) The trimethylsilyl ethers were prepared using MSTFA, (Pierce, Rockford, Ill.). Methyl esters were prepared using freshly distilled diazomethane. GLC-MS analyses were done on a Shimidzu GLC 17A instrument attached to a Model 5000 mass detector. Samples were injected in the split-mode onto a ZB-1701, 30 m×0.25 mm×0.15 μm capillary column (Phenomenex, Torrance, Calif.) and temperature programming at 1° C. beginning at 240° C.

[5] = target: T4, Recombinant human P450 27A1; assay: P450 27A1 enzyme incubation: disappearance of substrate, coprostanol internal standard; format: biochemical
Description: as §1, §2, §3, §4
TABLE 3 indicates the percent of zymosterol, desmosterol, and lanosterol that was metabolized compared with that of cholesterol and 7-dehydrocholesterol using coprostanol (m/z=370) as an internal standard and (−) adrenodoxin reductase as a control.

[6] = tested on: human retinal pigment epithelial cells (ARPE19); format: cell-based
Description: We undertook to determine the effect of 27-hydroxylation of 7-ketocholesterol on the cytotoxic effect of 7-ketocholesterol. To test the general hypothesis that 27-hydroxylation of steroids markedly alters their biologic activity, the 27-hydroxy derivative of 7-ketocholesterol was synthesized from 27-hydrocholesterol using modifications of a previously published method (11). Its biologic effects on human retinal pigment epithelial cells (ARPE19) was compared to that of 7-ketocholesterol.
By contrast, retinal pigment epithelial cells maintained in the presence of 27-hydroxy-7-ketocholesterol had only a 10% reduction in viability compared to control.

[7] = Adrenodoxin reductase (−) control incubation, 20 min
[8] = Adrenodoxin reductase +, 20 min
[9] = disappearance of substrate at 20 min versus incubation without adrenodoxin reductase

T4 sequence (Q02318 34-531): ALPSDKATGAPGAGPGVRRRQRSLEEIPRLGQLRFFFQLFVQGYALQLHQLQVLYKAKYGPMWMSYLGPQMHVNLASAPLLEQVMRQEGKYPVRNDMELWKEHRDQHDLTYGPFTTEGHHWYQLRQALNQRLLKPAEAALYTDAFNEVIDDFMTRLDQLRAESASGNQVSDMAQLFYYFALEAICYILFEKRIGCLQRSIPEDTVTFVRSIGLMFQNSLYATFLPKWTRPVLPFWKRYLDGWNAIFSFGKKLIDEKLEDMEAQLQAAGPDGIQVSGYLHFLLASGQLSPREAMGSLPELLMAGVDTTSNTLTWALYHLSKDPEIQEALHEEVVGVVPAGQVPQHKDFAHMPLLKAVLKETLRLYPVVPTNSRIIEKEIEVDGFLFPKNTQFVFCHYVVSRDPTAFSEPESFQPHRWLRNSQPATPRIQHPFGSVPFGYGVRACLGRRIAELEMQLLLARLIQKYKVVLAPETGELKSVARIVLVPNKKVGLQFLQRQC

Structure (SMILES)	Stimulation of ubiquitination of reductase [1]	Synthesis rate of the 27-diol metabolite ([4]; 0-2.5 min) [ng/min]	Synthesis rate of the 27-diol metabolite ([4]; 2.5-5.0 min) [ng/min]	Synthesis rate of the 27-diol metabolite ([4]; 5.0-10 min) [ng/min]	Total 27-diol metabolite [4] [ng/10 min]	other results
CC(CO)CCC[C@@H](C)[C@H]1CC[C@H]2[C@@H]3CC=C4C[C@@H](O)CC[C@]4(C)[C@H]3CC[C@]12C (some centres unmarked) [27-hydroxycholesterol]	stimulated ubiquitination of reductase					Expression of the nuclear receptor LXRα [2]: upregulates; Expression of the nuclear receptor LXRβ [3]: upregulates
CC(C)=CCC[C@@H](C)[C@H]1CC[C@@]2(C)C3=C(CC[C@]12C)[C@@]1(C)CC[C@H](O)C(C)(C)[C@@H]1CC3 [Lanosterol]	potently stimulate ubiquitination of reductase					Substrate for the enzyme CYP 27A1 [4]: substrates for the enzyme
CC(C)CCC[C@@H](C)[C@H]1CC[C@H]2[C@@H]3CC=C4C[C@@H](O)CC[C@]4(C)[C@H]3CC[C@]12C [Cholesterol]	not	80	75	53	534	Percent metabolized ([5]; human, 20 min, 25 µM, pH 7.4): 22%
CC(C)CCC[C@@H](C)[C@H]1CC[C@H]2C3=CC=C4C[C@@H](O)CC[C@]4(C)[C@H]3CC[C@]12C [7-Dehydrocholesterol]		24	54	11	107	Sterol/int std ratio [5, 7]: 0.95; Sterol/int std ratio [5, 8]: 0.65; Percent metabolized [5, 9]: 32%
CC(=CCCC(C)C1CCC2(C)C3=C(CCC12C)C1(C)CCC(O)C(C)(C)C1CC3)CO (centres unmarked) [27-hydroxylanosterol]	strongly stimulated reductase ubiquitination					Concentration giving approximately equivalent levels of reductase ubiquitination as 25 μM lanosterol [1]: 2.5 µM
CC(CO)CCC[C@@H](C)[C@H]1CC[C@H]2C3=CC=C4C[C@@H](O)CC[C@]4(C)[C@H]3CC[C@]12C (some centres unmarked) [27-hydroxy-7-dehydrocholesterol]						Expression of the nuclear receptor LXRα [2]: specifically upregulate
C[C@H](CCCC(C)(C)O)[C@H]1CC[C@H]2[C@@H]3CC=C4C[C@@H](O)CC[C@]4(C)[C@H]3CC[C@]12C [25-hydroxycholesterol]	stimulated ubiquitination of reductase					
CC(C)=CCC[C@@H](C)[C@H]1CC[C@H]2C3=C(CC[C@]12C)[C@@]1(C)CC[C@H](O)C[C@@H]1CC3 [Zymosterol]		9	14	10	97	Substrate for the enzyme CYP 27A1 [4]: substrates for the enzyme
CC(C)=CCC[C@@H](C)[C@H]1CC[C@H]2[C@@H]3CC=C4C[C@@H](O)CC[C@]4(C)[C@H]3CC[C@]12C [Desmosterol]		3	8	9	85	Substrate for the enzyme CYP 27A1 [4]: substrates for the enzyme; Sterol/int std ratio [5, 7]: 0.12; Sterol/int std ratio [5, 8]: 0.09; Percent metabolized [5, 9]: 25%
C[C@H](CCCC(C)(C)O)[C@H]1CC[C@H]2[C@@H]3C(=O)C=C4C[C@@H](O)CC[C@]4(C)[C@H]3CC[C@]12C [7-keto-25-hydroxycholesterol]	stimulated ubiquitination of reductase					
CC(C)CCC[C@@H](C)[C@H]1CC[C@H]2[C@@H]3C(=O)C=C4C[C@@H](O)CC[C@]4(C)[C@H]3CC[C@]12C [7-ketocholesterol]						Viability of retinal pigment epithelial cells ([6]; 25 μmolar): 68%; Viability of retinal pigment epithelial cells ([6]; 50 μmolar): 20%

Source: patent US8741812B2, “Class of sterol ligands and their uses in regulation of cholesterol and gene expression” (New York University, priority 2004, dated 2014)
